In ChEMBL document CHEMBL3885861, “Open TG-GATES”:

Species: Rattus norvegicus
Test: Open TG-GATES - Regimen: Single
Type: toxicity, organism-based, Sprague-Dawley
Set-up: regimen Single, gender Male, age 6 weeks
Details: in vivo, po, route gavage; for TC / TG / TP / gamma-GTP / ALP / ALT / AST / BUN / CRE / DBIL / IP / K / LDH / Na / PL / RALB / TBIL: tissue Plasma; for Bas / Eos / Fbg / Hb / Ht / Lym / MCHC / Mono / Plat / RBC / Ret / WBC / MCH / Neu / PT: tissue Blood; for KIDNEY_L / KIDNEY_R / KIDNEY_TOTAL: tissue Kidney; for LIVER: tissue Liver
[1] = 120 mg/kg, 3 h, dose level Middle
[2] = 120 mg/kg, 6 h, dose level Middle
[3] = 120 mg/kg, 9 h, dose level Middle
[4] = 120 mg/kg, 24 h, dose level Middle

## CCC(C)(C)C(=O)O[C@H]1C[C@@H](C)C=C2C=C[C@H](C)[C@H](CC[C@@H]3C[C@@H](O)CC(=O)O3)[C@H]21 [SIMVASTATIN]
40 mg/kg, 24 h, dose level Low
  TC: 80.8 mg/dL
  TG: 87.4 mg/dL
  TP: 5.4 g/dL
  gamma-GTP: 1.8 IU/L
[1]
  TERMINAL_BW: 200.4 g
  Bas: 0%
  Eos: 1%
  Fbg: 194.4 mg/dL
  Hb: 12.5 g/dL
  Ht: 37.9%
  Lym: 81.8%
  MCHC: 32.9%
  Mono: 6.4%
  Plat: 111.3 x10_4/uL
  RBC: 573.6 x10_4/ul
  Ret: 9.1%
  WBC: 131.2 x10_2/uL
  KIDNEY_L: 0.9 g
  KIDNEY_R: 1 g
  KIDNEY_TOTAL: 1.9 g
  LIVER: 9.6 g
  ALP: 1022 IU/L
  ALT: 34.2 IU/L
  AST: 66.6 IU/L
  BUN: 11.6 mg/dL
  CRE: 0.5 mg/dL
  DBIL: 0.032 mg/dL
  IP: 8.9 mg/dL
  K: 4.7 meq/L
  LDH: 117.2 IU/L
  Na: 137.8 meq/L
  PL: 134.8 mg/dL
  RALB: 3.5 g/dL
  TBIL: 0.3 mg/dL
  TC: 74 mg/dL
  TG: 56 mg/dL
  TP: 5.5 g/dL
  gamma-GTP: 1.6 IU/L
[2]
  TERMINAL_BW: 200.1 g
  Bas: 0%
  Eos: 0.6%
  Fbg: 203.2 mg/dL
  Hb: 12.9 g/dL
  Ht: 39.4%
  Lym: 77.6%
  MCH: 21.6 pg
  MCHC: 32.9%
  Mono: 6%
  Neu: 15.8%
  PT: 11.9 s
  Plat: 114.7 x10_4/uL
  RBC: 600.4 x10_4/ul
  Ret: 8.4%
  WBC: 123.6 x10_2/uL
  KIDNEY_L: 0.9 g
  KIDNEY_R: 0.9 g
  KIDNEY_TOTAL: 1.8 g
  LIVER: 8.9 g
  ALP: 912.2 IU/L
  ALT: 28.6 IU/L
  AST: 57.2 IU/L
  CRE: 0.5 mg/dL
  DBIL: 0.086 mg/dL
  IP: 9.6 mg/dL
  K: 4.5 meq/L
  LDH: 94 IU/L
  Na: 137.6 meq/L
  PL: 119 mg/dL
  RALB: 3.5 g/dL
  TBIL: 0.4 mg/dL
  TC: 66.4 mg/dL
  TG: 44 mg/dL
  TP: 5.4 g/dL
  gamma-GTP: 1.4 IU/L
[3]
  TERMINAL_BW: 199.1 g
  Bas: 0%
  Eos: 1%
  Fbg: 217.2 mg/dL
  Hb: 12.9 g/dL
  Ht: 39.5%
  Lym: 77%
  MCH: 21.6 pg
  MCHC: 32.6%
  Mono: 6%
  Neu: 16.6%
  PT: 11.8 s
  Plat: 106.6 x10_4/uL
  RBC: 598.2 x10_4/ul
  Ret: 9%
  WBC: 82.6 x10_2/uL
  KIDNEY_L: 0.9 g
  KIDNEY_R: 0.9 g
  KIDNEY_TOTAL: 1.8 g
  LIVER: 8.3 g
  ALP: 788.6 IU/L
  ALT: 30.8 IU/L
  AST: 57.4 IU/L
  CRE: 0.5 mg/dL
  DBIL: 0.026 mg/dL
  K: 4.7 meq/L
  LDH: 88.2 IU/L
  Na: 137.6 meq/L
  PL: 119.4 mg/dL
  RALB: 3.7 g/dL
  TBIL: 0.3 mg/dL
  TC: 70.6 mg/dL
  TG: 29.6 mg/dL
  TP: 5.4 g/dL
  gamma-GTP: 1 IU/L
[4]
  TERMINAL_BW: 207.4 g
  Bas: 0%
  Eos: 1%
  Fbg: 209.2 mg/dL
  Hb: 12.8 g/dL
  Ht: 39.1%
  Lym: 79.2%
  MCHC: 32.8%
  Mono: 6.2%
  Neu: 14%
  Plat: 123 x10_4/uL
  RBC: 586 x10_4/ul
  Ret: 8.3%
  WBC: 87 x10_2/uL
  KIDNEY_L: 1 g
  KIDNEY_R: 1 g
  KIDNEY_TOTAL: 2 g
  ALP: 811 IU/L
  ALT: 44 IU/L
  AST: 67.8 IU/L
  BUN: 18 mg/dL
  CRE: 0.5 mg/dL
  DBIL: 0.044 mg/dL
  IP: 7.5 mg/dL
  K: 4.7 meq/L
  LDH: 127.8 IU/L
  Na: 139.6 meq/L
  PL: 129.4 mg/dL
  RALB: 3.9 g/dL
  TBIL: 0.4 mg/dL
  TC: 69.4 mg/dL
  TP: 5.5 g/dL
  gamma-GTP: 2.4 IU/L
400 mg/kg, 3 h, dose level High
  TERMINAL_BW: 201.6 g
